According to patent US6808936B1, “Methods and compositions for use in the diagnosis and treatment of chronic immune disease” (R.E.D. Laboratories, N.V., priority 2000, dated 2004):

Experiments:
Assay in all cases: Caspase activity in extracts of U937 cell line induced to apoptosis with camptothecin
Assay type in all cases: cell-based, human
[1] = test system: caspase 2; settings: U937 Cell Line Induced (G3), camptothecin 10 micrograms per mL; n 4; uninduced 50 ± 32
Method: (§1) Caspase levels in PBMC extracts were measured using a commercially available kit (BioSource International) based on a calorimetric assay. Briefly, PBMC extracts were diluted to a final concentration of 1 microgram of protein per 50 microliters of diluent (provided with the kit). This sample (1 microgram) was then added to 55 microliters of assay buffer containing a substrate specific for the particular caspase to be measured (if caspase activity is present, the substrate is cleaved, liberating color). Cell extracts to be used as positive and negative controls for caspase activity levels were prepared using the method of […] et al. (1999), Oncogene 14:1007-1012). Briefly, the human monocytic leukemia cell line U937 was induced to begin apoptosis by treatment with camptothecin at a concentration of 10 micrograms per mL of 2×10^6 cells. Uninduced cells were used as the negative control. Also included as a negative control were normal human monocytes, elutriated and frozen as live cells. All cell extracts and protein determinations were made as described above. The reaction mixture (1 microgram protein sample+caspase substrate) was incubated at 37 degrees C. for 20-24 hours. The resultant color was measured using a spectrophotometer at a wavelength of 405 nm. Background absorbance (i.e., from a reagent blank without protein) was subtracted from all sample values. All assays were performed in triplicate, […]

[2] = test system: caspase 8; settings: U937 Cell Line Induced (G3), camptothecin 10 micrograms per mL; n 4; uninduced 91 ± 11
Method: as §1

[3] = test system: caspase 3
Method: as §1

[4] = test system: caspase 9; settings: U937 Cell Line Induced (G3), camptothecin 10 micrograms per mL; n 4; uninduced 45 ± 6
Method: as §1

[5] = test system: caspase 6; settings: U937 Cell Line Induced (G3), camptothecin 10 micrograms per mL; n 4; uninduced 162 ± 20
Method: as §1

Q: Which C2 caspase activity [1] does the source give for CC[C@@]1(O)C(=O)OCc2c1cc1n(c2=O)Cc2cc3ccccc3nc2-1 [camptothecin] here?
A: 251 ± 39

Q: What about the C8 caspase activity [2] of the same compound?
A: 207 ± 52

Q: And the “Caspase 3 Activity” value ([3]; Table 2: U937 Cell Line Induced (G3), camptothecin, mean ± s.d. of triplicates, uninduced 82 ± 9)?
A: 336 ± 6 mAU

Q: And the C3 caspase activity ([3]; U937 Cell Line Induced (G3), camptothecin 10 micrograms per mL, n 4, uninduced 73 ± 26)?
A: 304 ± 50

Q: What about the C9 caspase activity [4] of the same compound?
A: 90 ± 29

Q: What about the C6 caspase activity [5] of the same compound?
A: 277 ± 57
